Test results from patent US20050187188A1, “Methods for the treatment of a traumatic central nervous system injury” (Emory University, priority 2000, published 2005).

Assays:
TNFα = TNFα mRNA expression in brain tissue after contusion, real-time quantitative PCR; assay type: in vivo, rat; settings: 3 hours and 6 days post-injury
Text: Neurosteroid injections were given at 1 hr and 6 hrs after the contusions, and continued once a day for up to 5 consecutive days post-injury.
Adult male SD rates received either bilateral prefrontal cortical contusions or sham surgeries. The neurosteroid injections were given at 1 hr and 6 hr after the contusions and continued once a day for up to 5 consecutive days post-injury. At 3 hr, 8 hr, 12 hr and 6 days post-injury, the rats were killed and their brains were processed for mRNA extraction. Expression of mRNA for IL-1β and TNFα were assessed using real-time quantitative PCR.

[1] = test system: rats with bilateral contusions of the medial prefrontal cortex; test: Lesion size, ventricle and striatal area measurements after medial prefrontal cortex contusion, Example 6; assay type: in vivo, rat; settings: 4 mg/kg in peanut oil
Method: (§1) Male Sprague-Dawley rats (300 g) were housed individually in wire cages and kept on a reverse light-dark cycle (0800-2000 h). Animals were assigned to one of four groups: (1) lesion (n=7); (2) lesion +3 days progesterone (LP3; n=7); (3) lesion +5 days progesterone (LP5; n=7); and (4) Sham (n=8). All procedures involving animals conformed to guidelines set forth in the Guide for the Care and Use of Laboratory Animals (U.S. Department of Health and Human Services, Pub no. 85-23, 1985) and were approved by the Emory University Institutional Animal Care and Use Committee.
Bilateral contusions of the medial prefrontal cortex were created by a pneumatic impactor device as previously described. Briefly, rats were given anesthetized with ketamine/xylazine (90 mg/kg; 10 mg/kg) and placed in a stereotaxic apparatus. A craniectomy (diameter 6 mm) was made over the midline of the prefrontal cortex with its center 1.5 mm AP to bregma. After removal of the bone, the tip of the impactor (diameter 5 mm) was moved to +3.0 mm AP; 1.0 mm ML (from bregma), and checked for adequate clearance. Trauma was produced by pneumatically activating the piston to impact −2.0 mm DV (from dura) at a velocity of 3 m/s with a brain contact time of 0.5 seconds.
Progesterone was dissolved in peanut oil (Sigma; 4 mg/kg) and injections were given at 1 and 6 hours post-injury and then once per day for either 3 or 5 consecutive days. Control animals received injections of vehicle at similar time-points. Animals were coded with regard to surgery and treatment to prevent experimenter bias during behavioral testing and histological examination. […]
Mean area measurements of lesion size were quantified from sections at 15 rostral-caudal levels spaced 300 μm apart. […] Perimeters of the striatum and the lateral ventricles were also traced and mean areas were quantified from 7 rostral-caudal levels (300 μm apart).
Experienced individuals who were blind to treatment conditions of the study conducted all histological and behavioral analyses. All data were tested for normality and homoschedasticity before being analyzed by parametric analysis of variance (ANOVA). MWM results were analyzed using separate mixed-factorial (4 groups×5 days) analysis of variance (ANOVA) on each of the two 5-day testing periods (acquisition and retention respectively). Results of the BSN task were analyzed using the mixed-factorial ANOVA (4 groups×2 post-injury trials). […] Pearson r coefficients were calculated to determine whether significant correlations could be detected between histological (e.g., lesion size and cellular density) and behavioral parameters (e.g., acquisition and retention of the MWM task and measures of sensory neglect).

[2] = test system: rats with bilateral contusions of the medial prefrontal cortex; test: Bilateral sensory neglect (BSN) task, Example 6; assay type: in vivo, rat; settings: 3 days (LP3); 6 and 20 days post injury
Method: as §1
Bilateral contusions of the medial prefrontal cortex were created by a pneumatic impactor device as previously described. […]
Experienced individuals who were blind to treatment conditions of the study conducted all histological and behavioral analyses. All data were tested for normality and homoschedasticity before being analyzed by parametric analysis of variance (ANOVA). MWM results were analyzed using separate mixed-factorial (4 groups×5 days) analysis of variance (ANOVA) on each of the two 5-day testing periods (acquisition and retention respectively). Results of the BSN task were analyzed using the mixed-factorial ANOVA (4 groups×2 post-injury trials). […]
Measures of attentional abilities, using a bilateral sensory neglect (BSN) task, were recorded one day prior to surgery (baseline) and on postsurgical days 6 and 20. […]

traumatic brain injury = test: Morris water maze dose response, progesterone in cyclodextrin vehicle, Example 7; assay type: in vivo, rat
Method: The Morris Water Maize (MWM) consisted of a circular tank with a diameter of 133 cm filled with opaque water (20±1° C.; non-toxic Artista™ nontoxic white tempura paint) to a depth of 64 cm (23 cm from top of tank). A platform (11 cm×11 cm) was submerged to a depth of 2 cm and placed approximately 28 cm from the wall of the pool in the center of the northeast quadrant. The position of the platform will remain constant throughout the experiment. MWM testing began seven days after surgery. Each animal was tested for a total of 10 days (2 trials per day) in two 5-day blocks. At the start of each trial, the experimenter placed a rat into the pool at one of four starting positions, and at the same time, activate the computer-interfaced camera tracking system. Each rat was allowed to swim in the pool until it reached the platform or until 90 seconds has passed. […] Once a rat found the platform, it was left there for 20 seconds and then removed from the pool for an intertrial interval of 20 seconds. Each rat was then placed in the pool at another start position and the procedure described earlier was repeated. The performance of each rat was measured in terms of latency to platform, length of path to platform, and swim strategy, i.e., percent of total time spent in the outer versus inner annuli.
Surgery to induce a traumatic brain injury was performed as outlined in Example 1. Behavior testing using the Morris Water Maize was performed as outlined in Example 1 and the methods for the tactical adhesive removal were performed as outlined in Example 4.

contusion injury = settings: cited from earlier work

CC(=O)[C@H]1CC[C@H]2[C@@H]3CCC4=CC(=O)CC[C@]4(C)[C@H]3CC[C@]12C [progesterone]
TNFα mRNA expression (TNFα): reduced the expression of both IL-1β and TNFα
enlargement of the lateral ventricles ([1]; 3 or 5 days): did not have any effect on this measure
mean striatal area ([1]; 3 or 5 days): No between-group differences
necrotic cavity formation ([1]; 3 days (LP3)): tended to be smaller than in the brains of injured animals
necrotic cavity formation ([1]; 5 days (LP5), P<0.05): significant reductions in overall necrotic cavity formation
BSN task performance [2]: impaired on this task compared to control animals
Morris water maze performance (traumatic brain injury; high dose 32 mg/kg in a cyclodextrin-containing vehicle): did not show any beneficial effect
Morris water maze performance (traumatic brain injury; low dose 8 mg/kg in a cyclodextrin-containing vehicle): consistent improvement in Morris water maze performance
Morris water maze performance (traumatic brain injury; moderate dose 16 mg/kg in a cyclodextrin-containing vehicle): consistent improvement in Morris water maze performance
post injury cerebral edema (contusion injury; following a contusion injury): reduces the severity of post injury cerebral edema
neuronal loss in the LMDN (contusion injury; previous studies with this injury model): can significantly reduce this neuronal loss
